In PubChem BioAssay (NCI):
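Five concentrations, 48 hours, 96-well plates. The concentration for full growth arrest is given as TGI.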

Legend:
Assay in all cases: growth of human tumour cells (NCI), 48 h
M14 melanoma = system: M14 melanoma
U251 CNS = system: U251 CNS
DMS 114 small cell lung = system: DMS 114 small cell lung
SW-620 colon = system: SW-620 colon
SR leukemia = system: SR leukemia
SK-MEL-5 melanoma = system: SK-MEL-5 melanoma
TK-10 renal = system: TK-10 renal
OVCAR-8 ovarian = system: OVCAR-8 ovarian
KM12 colon = system: KM12 colon
HOP-92 NSCLC = system: HOP-92 NSCLC
KM20L2 colon = system: KM20L2 colon
EKVX NSCLC = system: EKVX NSCLC
UO-31 renal = system: UO-31 renal
A549 NSCLC = system: A549 NSCLC
DLD-1 colon = system: DLD-1 colon
SN12C renal = system: SN12C renal
A498 renal = system: A498 renal
HOP-18 NSCLC = system: HOP-18 NSCLC
SF-539 CNS = system: SF-539 CNS
RPMI-8226 leukemia = system: RPMI-8226 leukemia
OVCAR-3 ovarian = system: OVCAR-3 ovarian
HT29 colon = system: HT29 colon
DMS 273 small cell lung = system: DMS 273 small cell lung
K-562 leukemia = system: K-562 leukemia
M19-MEL melanoma = system: M19-MEL melanoma
NCI-H460 lung = system: NCI-H460 lung
MALME-3M melanoma = system: MALME-3M melanoma
OVCAR-5 ovarian = system: OVCAR-5 ovarian
HCC-2998 colon = system: HCC-2998 colon
NCI-H226 lung = system: NCI-H226 lung
UACC-62 melanoma = system: UACC-62 melanoma
NCI-H23 lung = system: NCI-H23 lung
UACC-257 melanoma = system: UACC-257 melanoma
SF-268 CNS = system: SF-268 CNS
HL-60(TB) leukemia = system: HL-60(TB) leukemia
SK-MEL-28 melanoma = system: SK-MEL-28 melanoma
OVCAR-4 ovarian = system: OVCAR-4 ovarian
HCT-116 colon = system: HCT-116 colon
SNB-19 CNS = system: SNB-19 CNS
HOP-62 NSCLC = system: HOP-62 NSCLC
SK-MEL-2 melanoma = system: SK-MEL-2 melanoma
LOX IMVI melanoma = system: LOX IMVI melanoma
ACHN renal = system: ACHN renal
786-0 renal = system: 786-0 renal
XF 498 CNS = system: XF 498 CNS
RXF 393 renal = system: RXF 393 renal
SK-OV-3 ovarian = system: SK-OV-3 ovarian
NCI-H522 lung = system: NCI-H522 lung
SF-295 CNS = system: SF-295 CNS
CCRF-CEM leukemia = system: CCRF-CEM leukemia
MOLT-4 leukemia = system: MOLT-4 leukemia
IGROV1 ovarian = system: IGROV1 ovarian
COLO 205 colon = system: COLO 205 colon
SNB-75 CNS = system: SNB-75 CNS
SNB-78 CNS = system: SNB-78 CNS
LXFL 529 NSCLC = system: LXFL 529 NSCLC
HCT-15 colon = system: HCT-15 colon
CAKI-1 renal = system: CAKI-1 renal

SMILES: CCOC(=O)CC(=O)Sc1ccccc1
- TGI (M14 melanoma): 31.7 µM
- TGI (U251 CNS): 40.2 µM
- TGI (DMS 114 small cell lung): 32 µM
- TGI (SW-620 colon): 39.4 µM
- TGI (SR leukemia): 58.1 µM
- TGI (SK-MEL-5 melanoma): 58.5 µM
- TGI (TK-10 renal): > 100 µM
- TGI (OVCAR-8 ovarian): 34.6 µM
- TGI (KM12 colon): > 100 µM
- TGI (HOP-92 NSCLC): 89.5 µM
- TGI (KM20L2 colon): 47.5 µM
- TGI (EKVX NSCLC): 74 µM
- TGI (UO-31 renal): 28.4 µM
- TGI (A549 NSCLC): 60.6 µM
- TGI (DLD-1 colon): 53.6 µM
- TGI (SN12C renal): 24.6 µM
- TGI (A498 renal): 57.4 µM
- TGI (HOP-18 NSCLC): > 100 µM
- TGI (SF-539 CNS): 28.6 µM
- TGI (RPMI-8226 leukemia): 51 µM
- TGI (OVCAR-3 ovarian): 42.7 µM
- TGI (HT29 colon): 48.7 µM
- TGI (DMS 273 small cell lung): 46 µM
- TGI (K-562 leukemia): 58.7 µM
- TGI (M19-MEL melanoma): 48.4 µM
- TGI (NCI-H460 lung): 73.8 µM
- TGI (MALME-3M melanoma): > 100 µM
- TGI (OVCAR-5 ovarian): > 100 µM
- TGI (HCC-2998 colon): 96 µM
- TGI (NCI-H226 lung): 58.4 µM
- TGI (UACC-62 melanoma): 30.7 µM
- TGI (NCI-H23 lung): 70.7 µM
- TGI (UACC-257 melanoma): 91.4 µM
- TGI (SF-268 CNS): 23.1 µM
- TGI (HL-60(TB) leukemia): 48.6 µM
- TGI (SK-MEL-28 melanoma): 35 µM
- TGI (OVCAR-4 ovarian): > 100 µM
- TGI (HCT-116 colon): 26.8 µM
- TGI (SNB-19 CNS): > 100 µM
- TGI (HOP-62 NSCLC): 65.6 µM
- TGI (SK-MEL-2 melanoma): 67.9 µM
- TGI (LOX IMVI melanoma): 26.8 µM
- TGI (ACHN renal): 65.7 µM
- TGI (786-0 renal): 37 µM
- TGI (XF 498 CNS): 93.4 µM
- TGI (RXF 393 renal): 25.9 µM
- TGI (SK-OV-3 ovarian): 49.3 µM
- TGI (NCI-H522 lung): 24.3 µM
- TGI (SF-295 CNS): 86.5 µM
- TGI (CCRF-CEM leukemia): 51.3 µM
- TGI (MOLT-4 leukemia): 72.6 µM
- TGI (IGROV1 ovarian): 26 µM
- TGI (COLO 205 colon): 52.9 µM

SMILES: CC(C)NCCNC(=O)c1ccccc1Nc1c(Cl)cccc1Cl
- TGI (M14 melanoma): 25.1 µM
- TGI (U251 CNS): 16.8 µM
- TGI (DMS 114 small cell lung): 23.4 µM
- TGI (SW-620 colon): 30.4 µM
- TGI (SR leukemia): 26.8 µM
- TGI (SK-MEL-5 melanoma): 17.3 µM
- TGI (TK-10 renal): 24 µM
- TGI (OVCAR-8 ovarian): 34.4 µM
- TGI (KM12 colon): 36 µM
- TGI (KM20L2 colon): 5.78 µM
- TGI (EKVX NSCLC): 28.1 µM
- TGI (UO-31 renal): 21.8 µM
- TGI (A549 NSCLC): 33.9 µM
- TGI (DLD-1 colon): 25.7 µM
- TGI (SN12C renal): 26.8 µM
- TGI (SF-539 CNS): 30.2 µM
- TGI (SNB-75 CNS): 16.3 µM
- TGI (RPMI-8226 leukemia): 16.2 µM
- TGI (OVCAR-3 ovarian): 26.6 µM
- TGI (HT29 colon): 17.5 µM
- TGI (DMS 273 small cell lung): 26.6 µM
- TGI (SNB-78 CNS): 31.5 µM
- TGI (M19-MEL melanoma): 20.8 µM
- TGI (LXFL 529 NSCLC): 31.5 µM
- TGI (NCI-H460 lung): 11 µM
- TGI (OVCAR-5 ovarian): 20.4 µM
- TGI (NCI-H226 lung): 30.1 µM
- TGI (UACC-62 melanoma): 30.1 µM
- TGI (NCI-H23 lung): 32 µM
- TGI (UACC-257 melanoma): 22.3 µM
- TGI (SF-268 CNS): 34.1 µM
- TGI (HL-60(TB) leukemia): 24.8 µM
- TGI (SK-MEL-28 melanoma): 28.1 µM
- TGI (OVCAR-4 ovarian): 30.3 µM
- TGI (HCT-116 colon): 23.4 µM
- TGI (SNB-19 CNS): 30 µM
- TGI (HOP-62 NSCLC): 25.4 µM
- TGI (LOX IMVI melanoma): 20.6 µM
- TGI (HCT-15 colon): 26.5 µM
- TGI (ACHN renal): 31.2 µM
- TGI (786-0 renal): 16 µM
- TGI (XF 498 CNS): 11.4 µM
- TGI (RXF 393 renal): 17 µM
- TGI (SK-OV-3 ovarian): 28 µM
- TGI (SF-295 CNS): 28.5 µM
- TGI (CCRF-CEM leukemia): 27.1 µM
- TGI (MOLT-4 leukemia): 27.3 µM
- TGI (IGROV1 ovarian): 30.7 µM
- TGI (COLO 205 colon): 24.9 µM

SMILES: NNc1nnc(-c2ccccc2)nc1Cc1ccccc1
- TGI (M14 melanoma): 45.5 µM
- TGI (U251 CNS): > 100 µM
- TGI (DMS 114 small cell lung): 17 µM
- TGI (SW-620 colon): > 100 µM
- TGI (SR leukemia): > 100 µM
- TGI (SK-MEL-5 melanoma): > 100 µM
- TGI (TK-10 renal): > 100 µM
- TGI (OVCAR-8 ovarian): 39.1 µM
- TGI (KM12 colon): > 100 µM
- TGI (KM20L2 colon): > 100 µM
- TGI (EKVX NSCLC): > 100 µM
- TGI (UO-31 renal): 31.6 µM
- TGI (A549 NSCLC): > 100 µM
- TGI (DLD-1 colon): > 100 µM
- TGI (SN12C renal): 51.6 µM
- TGI (HOP-18 NSCLC): 7.25 µM
- TGI (SF-539 CNS): 64.1 µM
- TGI (OVCAR-3 ovarian): > 100 µM
- TGI (HT29 colon): > 100 µM
- TGI (DMS 273 small cell lung): > 100 µM
- TGI (K-562 leukemia): > 100 µM
- TGI (M19-MEL melanoma): > 100 µM
- TGI (LXFL 529 NSCLC): 78.9 µM
- TGI (NCI-H460 lung): > 100 µM
- TGI (MALME-3M melanoma): 26.3 µM
- TGI (OVCAR-5 ovarian): > 100 µM
- TGI (HCC-2998 colon): > 100 µM
- TGI (NCI-H226 lung): 6.43 µM
- TGI (UACC-62 melanoma): 16.1 µM
- TGI (NCI-H23 lung): > 100 µM
- TGI (SF-268 CNS): > 100 µM
- TGI (CAKI-1 renal): > 100 µM
- TGI (HL-60(TB) leukemia): 38 µM
- TGI (SK-MEL-28 melanoma): > 100 µM
- TGI (OVCAR-4 ovarian): > 100 µM
- TGI (HCT-116 colon): > 100 µM
- TGI (SNB-19 CNS): > 100 µM
- TGI (HOP-62 NSCLC): 9.45 µM
- TGI (SK-MEL-2 melanoma): > 100 µM
- TGI (LOX IMVI melanoma): 30.5 µM
- TGI (HCT-15 colon): > 100 µM
- TGI (ACHN renal): > 100 µM
- TGI (XF 498 CNS): 79.3 µM
- TGI (RXF 393 renal): > 100 µM
- TGI (SK-OV-3 ovarian): > 100 µM
- TGI (NCI-H522 lung): > 100 µM
- TGI (CCRF-CEM leukemia): > 100 µM
- TGI (MOLT-4 leukemia): > 100 µM
- TGI (IGROV1 ovarian): > 100 µM
- TGI (COLO 205 colon): > 100 µM
